From patent US6187783A, “Phenanthridinium derivatives” (Nippon Kayaku Kabushiki Kaisha, priority 1996, dated 2001)
Where two headings read alike, the source gives them in different places.

Experiments:
[1] = Chemical reduction with sodium cyanoborohydride; type: physicochemical
Procedure: (§1) In addition, when an in vitro metabolic test using liver homogenate (S9) prepared from human liver was performed with reference to the method described in Arch. […] This product coincided with the reduced product formed by the chemical reduction described above.
(§2) 2,3-(Methylenedioxy)-7-hydroxy-8-methoxy-5,6-propano-benzo[c]phenanthridinium chloride, which is one of the compounds of the present invention, was treated with sodium cyanoborohydride in an aqueous solution at room temperature.
The compound of the present invention (0.1 mg/mL aqueous solution, 0.1 mL) was diluted with methanol (1.0 mL). An aqueous solution of sodium cyanoborohydride (4 mg/mL, 0.02 mL) was added to the solution. The mixture was allowed to stand at room temperature. The reaction was terminated by adding 1% aqueous phosphoric acid (1 mL) thereto. The residual amount of the compound was determined by high performance liquid chromatography. As a control, 2,3-(methylenedioxy)-5-methyl-7-hydroxy-8-methoxy-benzo[c]phenanthridiniumhydrogensulfate was similarly reacted.

[2] = In vitro metabolic test using liver homogenate (S9); type: in vitro ADME, human
Procedure: as §1, §2

[3] = test system: Human uterus cancer-derived cells HeLa S3; test: Growth prevention against cancer cells (72 h contact, Methylene Blue staining); type: cell-based; conditions: HeLa S3, 72 hours contact, 37° C., read-out: 50% Inhibitory Concentration (IC50)
Procedure: The compounds of the present invention were examined on the antitumor activity, and the thus obtained results are shown below.
1. Growth prevention against cancer cells
Human uterus cancer-derived cells HeLa S3 were incubated at 37° C. for 24 hours in 5% CO2. A test compound was then brought into contact with the cells for 72 hours. Then, the cells were stained with 0.05% Methylene Blue. The pigment was extracted from the stained cells. The growth inhibition of the cells were determined based on absorbance at 660 nm to calculate 50% growth inhibitory concentration (IC50).

[4] = test system: Mouse leukemia cells P388; test: Antitumor effect on cancer cells in vivo (P388 leukemia, survival); set-up: species or system mouse (female CDF1 mice); conditions: i.v. single administration; for Survived Days: P388 in female CDF1 mice; for Effect (T/C %): ratio of survival days to median of control group
Procedure: 2. Antitumor effect on cancer cells in vivo
Mouse leukemia cells P388 was intravenously injected to female CDF1 mice of 6 weeks old in a dose of 10^5 cells/mouse. A 5% glucose aqueous solution of 2,3-(methylenedioxy)-7-hydroxy-8-methoxy-5,6-propano-benzo[c]phenanthridinium chloride (Compound No. A-4 of the present invention, (X^- =Cl^-)) was intravenously injected by single administration on the day following the tumor transportation. The antitumor effect was evaluated by comparing the ratio (T/C %) of survival days to the median of survival days in the control group (5 mice).

female CDF1 mice = test: Acute toxicity by intravenous injection; type: in vivo, mouse (female CDF1 mice); conditions: female CDF1 mice of 6 weeks old
Procedure: The acute toxicity was assessed by intravenous injection of 2,3-(methylenedioxy)-7-hydroxy-8-methoxy-5,6-propano-benzo[c]phenanthridinium chloride (Compound No. A-4 of the present invention, (X^- =Cl^-)) to female CDF1 mice of 6 weeks old.

[5] = aqueous sodium cyanoborohydride

| Structure (SMILES) | Amount of Compound remained after Reduction [1, 5] | Production of metabolite [2] | IC50 [3] [µM] | Survived Days ([4]; 25 mg/kg/day) [days] | Effect (T/C %) ([4]; 25 mg/kg/day) [%] | Survived Days ([4]; 50 mg/kg/day) [days] | Effect (T/C %) ([4]; 50 mg/kg/day) [%] | Survived Days ([4]; 75 mg/kg/day) [days] | Effect (T/C %) ([4]; 75 mg/kg/day) [%] | Survived Days ([4]; 100 mg/kg/day) [days] | Effect (T/C %) ([4]; 100 mg/kg/day) [%] | Acute toxicity (survival) (female CDF1 mice) | Disappearance on treatment with sodium cyanoborohydride ([1]; aqueous solution, room temperature) | Amount of Compound remained after Reduction ([1]; sodium cyanoborohydride, room temperature, terminated with phosphoric acid, HPLC) | Production of metabolite ([2]; in vitro, liver homogenate (S9) prepared from human liver) |
| --- | --- | --- | --- | --- | --- | --- | --- | --- | --- | --- | --- | --- | --- | --- | --- |
| COc1ccc2c(c1O)c1[n+](c3c4cc5c(cc4ccc23)OCO5)CCC1 [Compound No. A-4, 2,3-(methylenedioxy)-7-hydroxy-8-methoxy-5,6-propano-benzo[c]phenanthridinium chloride] | 50 | no metabolite was produced | 0.17 | 14 | 167 | 21 | 250 | > 30 | > 357 | > 30 | > 357 | survived even in a dose of 100 mg/kg, without showing any death |  |  |  |
| COc1ccc2c(c1O)c1[n+](c3c4cc5c(cc4ccc23)OCO5)CCCC1 [Compound No. A-7, 2,3-(methylenedioxy)-7-hydroxy-8-methoxy-5,6-butano-benzo[c]phenanthridinium chloride] | 100 |  | 5.6 |  |  |  |  |  |  |  |  |  |  |  |  |
| COc1ccc2c(c[n+](C)c3c4cc5c(cc4ccc23)OCO5)c1O [Control, 2,3-(methylenedioxy)-5-methyl-7-hydroxy-8-methoxy-benzo[c]phenanthridiniumhydrogensulfate, reference compound] |  |  |  |  |  |  |  |  |  |  |  |  | the phenanthridinium is lost in a few minutes | 0 | production of the metabolite was observed |
